Consider three compounds from ChEMBL document CHEMBL1949655, “Neomycin-phenolic conjugates: polycationic amphiphiles with broad-spectrum antibacterial activity, low hemolytic activity and weak serum protein binding” (Bioorg Med Chem Lett, 2012).

The test system of data set [1] is Staphylococcus aureus. Put plainly: microbe, parasite or virus in culture. As to conditions: ATCC 29213, 24 h. In kind it is functional.
Description: Antibacterial activity against Staphylococcus aureus ATCC 29213 after 24 hrs by macrobroth dilution method
For data set [2], the system named is Staphylococcus aureus. The data set can be described thus: microbe, parasite or virus in culture. Type of data set: functional. As to conditions: ATCC 33592, 24 h.
Description: Antibacterial activity against methicillin-resistant Staphylococcus aureus ATCC 33592 after 24 hrs by macrobroth dilution method
In data set [3] the test system is Staphylococcus epidermidis. Put plainly: microbe, parasite or virus in culture. Type of data set: functional. As to conditions: Staphylococcus epidermidis, 81388, 24 h.
Description: Antibacterial activity against methicillin-susceptible Staphylococcus epidermidis 81388 after 24 hrs by macrobroth dilution method
The test system of data set [4] is Staphylococcus epidermidis. The data set can be described thus: microbe, parasite or virus in culture. In kind it is functional. As to conditions: isolate CAN-ICU61589, 24 h.
Description: Antibacterial activity against methicillin-resistant Staphylococcus epidermidis isolate CAN-ICU 61589 after 24 hrs by macrobroth dilution method
For data set [5], the system named is Enterococcus faecalis. The data set can be described thus: microbe, parasite or virus in culture. Type of data set: functional. As to conditions: ATCC 29212, 24 h.
Description: Antibacterial activity against Enterococcus faecalis ATCC 29212 after 24 hrs by macrobroth dilution method
The test system of data set [6] is Enterococcus faecium. The data set can be described thus: microbe, parasite or virus in culture. In kind it is functional. As to conditions: ATCC 27270, 24 h.
Description: Antibacterial activity against Enterococcus faecium ATCC 27270 after 24 hrs by macrobroth dilution method
Data set [7] has as its system Streptococcus pneumoniae. The data set can be described thus: microbe, parasite or virus in culture. In kind it is functional. Conditions: ATCC 49619, 24 h.
Description: Antibacterial activity against Streptococcus pneumoniae ATCC 49619 after 24 hrs by macrobroth dilution method
Data set [8] relates to Escherichia coli. The data set can be described thus: microbe, parasite or virus in culture. In kind it is functional. As to conditions: ATCC 25922, 24 h.
Description: Antibacterial activity against Escherichia coli ATCC 25922 after 24 hrs by macrobroth dilution method
The test system of data set [9] is Escherichia coli. The data set can be described thus: microbe, parasite or virus in culture. Type of data set: functional. As to conditions: isolate CAN-ICU 61714, 24 h.
Description: Antibacterial activity against Escherichia coli isolate CAN-ICU 61714 after 24 hrs by macrobroth dilution method
In data set [10] the test system is Escherichia coli. Put plainly: microbe, parasite or virus in culture. In kind it is functional. Conditions: isolate CAN-ICU 63074, 24 h.
Description: Antibacterial activity against Escherichia coli isolate CAN-ICU 63074 after 24 hrs by macrobroth dilution method
Data set [11] concerns Pseudomonas aeruginosa. Put plainly: microbe, parasite or virus in culture. In kind it is functional. Conditions: ATCC 27853, 24 h.
Description: Antibacterial activity against Pseudomonas aeruginosa ATCC 27853 after 24 hrs by macrobroth dilution method
Data set [12] deals with Pseudomonas aeruginosa. Put plainly: microbe, parasite or virus in culture. In kind it is functional. As to conditions: isolate CAN-ICU 62308, 24 h.
Description: Antibacterial activity against Pseudomonas aeruginosa isolate CAN-ICU 62308 after 24 hrs by macrobroth dilution method
The subject of data set [13] is Stenotrophomonas maltophilia. Put plainly: microbe, parasite or virus in culture. In kind it is functional. As to conditions: isolate CAN-ICU 62584, 24 h.
Description: Antibacterial activity against Stenotrophomonas maltophilia isolate CAN-ICU 62584 after 24 hrs by macrobroth dilution method
Data set [14] has as its system Acinetobacter baumannii. Put plainly: microbe, parasite or virus in culture. As to conditions: isolate CAN-ICU 63169, 24 h. In kind it is functional.
Description: Antibacterial activity against Acinetobacter baumannii 63169 isolate CAN-ICU after 24 hrs by macrobroth dilution method
Data set [15] has as its system Klebsiella pneumoniae. Put plainly: microbe, parasite or virus in culture. In kind it is functional. Conditions: ATCC 13883, 24 h.
Description: Antibacterial activity against Klebsiella pneumoniae ATCC 13883 after 24 hrs by macrobroth dilution method
Data set [16] has as its system Staphylococcus aureus. Put plainly: microbe, parasite or virus in culture. In kind it is functional. As to conditions: ATCC 29213, 24 h. The source holds these as a separate data set.
Description: Antibacterial activity against Staphylococcus aureus ATCC 29213 after 24 hrs by macrobroth dilution method in the presence of bovine serum albumin
Data set [17] relates to Staphylococcus aureus. Put plainly: microbe, parasite or virus in culture. Conditions: ATCC 33592, 24 h. Type of data set: functional. The source holds these as a separate data set.
Description: Antibacterial activity against methicillin-resistant Staphylococcus aureus ATCC 33592 after 24 hrs by macrobroth dilution method in the presence of bovine serum albumin
Data set [18] deals with Staphylococcus epidermidis. The data set can be described thus: microbe, parasite or virus in culture. Type of data set: functional. Conditions: Staphylococcus epidermidis, 81388, 24 h. This is another data set of the same source.
Description: Antibacterial activity against methicillin-susceptible Staphylococcus epidermidis 81388 after 24 hrs by macrobroth dilution method in the presence of bovine serum albumin
Data set [19] has as its system Staphylococcus epidermidis. Put plainly: microbe, parasite or virus in culture. Type of data set: functional, isolate CAN-ICU 61589. As to conditions: isolate CAN-ICU61589, 24 h.
Description: Antibacterial activity against methicillin-resistant Staphylococcus epidermidis isolate CAN-ICU 61589 after 24 hrs by macrobroth dilution method in the presence of bovine serum albumin
Data set [20] has as its system Enterococcus faecalis. Put plainly: microbe, parasite or virus in culture. Type of data set: functional. As to conditions: ATCC 29212, 24 h. The source holds these as a separate data set.
Description: Antibacterial activity against Enterococcus faecalis ATCC 29212 after 24 hrs by macrobroth dilution method in the presence of bovine serum albumin
The test system of data set [21] is Enterococcus faecium. Put plainly: microbe, parasite or virus in culture. As to conditions: ATCC 27270, 24 h. In kind it is functional. The source holds these as a separate data set.
Description: Antibacterial activity against Enterococcus faecium ATCC 27270 after 24 hrs by macrobroth dilution method in the presence of bovine serum albumin
In data set [22] the test system is Streptococcus pneumoniae. Put plainly: microbe, parasite or virus in culture. Type of data set: functional. As to conditions: ATCC 49619, 24 h. The source holds these as a separate data set.
Description: Antibacterial activity against Streptococcus pneumoniae ATCC 49619 after 24 hrs by macrobroth dilution method in the presence of bovine serum albumin
The subject of data set [23] is Escherichia coli. The data set can be described thus: microbe, parasite or virus in culture. Conditions: ATCC 25922, 24 h. In kind it is functional. This is another data set of the same source.
Description: Antibacterial activity against Escherichia coli ATCC 25922 after 24 hrs by macrobroth dilution method in the presence of bovine serum albumin
Data set [24] deals with Escherichia coli. Put plainly: microbe, parasite or virus in culture. As to conditions: isolate CAN-ICU 61714, 24 h. Type of data set: functional. The source holds these as a separate data set.
Description: Antibacterial activity against Escherichia coli isolate CAN-ICU 61714 after 24 hrs by macrobroth dilution method in the presence of bovine serum albumin
For data set [25], the system named is Escherichia coli. Put plainly: microbe, parasite or virus in culture. Conditions: isolate CAN-ICU 63074, 24 h. Type of data set: functional. The source holds these as a separate data set.
Description: Antibacterial activity against Escherichia coli isolate CAN-ICU 63074 after 24 hrs by macrobroth dilution method in the presence of bovine serum albumin
In data set [26] the test system is Pseudomonas aeruginosa. The data set can be described thus: microbe, parasite or virus in culture. Conditions: ATCC 27853, 24 h. Type of data set: functional. The source holds these as a separate data set.
Description: Antibacterial activity against Pseudomonas aeruginosa ATCC 27853 after 24 hrs by macrobroth dilution method in the presence of bovine serum albumin
Data set [27] relates to Pseudomonas aeruginosa. The data set can be described thus: microbe, parasite or virus in culture. Conditions: isolate CAN-ICU 62308, 24 h. In kind it is functional. This is another data set of the same source.
Description: Antibacterial activity against Pseudomonas aeruginosa isolate CAN-ICU 62308 after 24 hrs by macrobroth dilution method in the presence of bovine serum albumin
For data set [28], the system named is Stenotrophomonas maltophilia. Put plainly: microbe, parasite or virus in culture. In kind it is functional. As to conditions: isolate CAN-ICU 62584, 24 h. The source holds these as a separate data set.
Description: Antibacterial activity against Stenotrophomonas maltophilia isolate CAN-ICU 62584 after 24 hrs by macrobroth dilution method in the presence of bovine serum albumin
Data set [29] concerns Acinetobacter baumannii. Put plainly: microbe, parasite or virus in culture. Type of data set: functional. Conditions: isolate CAN-ICU 63169, 24 h. This is another data set of the same source.
Description: Antibacterial activity against Acinetobacter baumannii isolate CAN-ICU 63169 after 24 hrs by macrobroth dilution method in the presence of bovine serum albumin
Data set [30] deals with Klebsiella pneumoniae. Put plainly: microbe, parasite or virus in culture. In kind it is functional. Conditions: ATCC 13883, 24 h. The source holds these as a separate data set.
Description: Antibacterial activity against Klebsiella pneumoniae ATCC 13883 after 24 hrs by macrobroth dilution method in the presence of bovine serum albumin
Data set [31] is described as follows: Toxicity in human erythrocytes assessed as hemolysis at 100 ug/ml by spectrophotometry. As to conditions: at 100 µg/mL.
The subject of data set [32] is Pseudomonas aeruginosa. Put plainly: Ratio of MIC90 of neomycin sulfate to MIC90 of compound against Pseudomonas aeruginosa ATCC 27853. In kind it is functional.
Data set [33] relates to Pseudomonas aeruginosa. Put plainly: Ratio of MIC90 of neomycin sulfate to MIC90 of compound against Pseudomonas aeruginosa 62308. Type of data set: functional.
A short description of data set [34]: Aqueous solubility of the compound. In kind it is physicochemical. Conditions: buffer.

Values after ≈ are worked out from the molar mass of the structure shown.

In the case of `CC(C)(C)CC(C)(C)c1ccc(OCc2cn(C[C@H]3O[C@@H](O[C@@H]4[C@@H](O)[C@H](N)C[C@H](N)[C@H]4O[C@H]4O[C@H](CN)[C@@H](O)[C@H](O)[C@H]4N)[C@H](O)[C@@H]3O[C@H]3O[C@@H](CN)[C@@H](O)[C@H](O)[C@H]3N)nn2)c(Cc2ccc(Cl)cc2Cl)c1`, the MIC90 was found to be 8 µg/mL (≈ 7.67 µM) with Staphylococcus aureus [1]; 8 µg/mL (≈ 7.67 µM) against Staphylococcus aureus [2]; 4 µg/mL (≈ 3.83 µM) in data set [3]; 1 µg/mL (≈ 0.959 µM) in [4]; 8 µg/mL (≈ 7.67 µM) against Enterococcus faecalis [5]; 8 µg/mL (≈ 7.67 µM) in the data set with Enterococcus faecium [6]. Further, the MIC90 with Streptococcus pneumoniae [7] turned out to be 64 µg/mL (≈ 61.4 µM); in the data set with Escherichia coli [8], 16 µg/mL (≈ 15.3 µM); in the data set with Escherichia coli [9], 64 µg/mL (≈ 61.4 µM); with Escherichia coli [10], 64 µg/mL (≈ 61.4 µM); in the data set on Pseudomonas aeruginosa [11], 128 µg/mL (≈ 123 µM); in the data set on Pseudomonas aeruginosa [12] it was 64 µg/mL (≈ 61.4 µM). For the same compound, the MIC90 is 512 µg/mL (≈ 491 µM) in data set [13]; 64 µg/mL (≈ 61.4 µM) in the data set on Acinetobacter baumannii [14]; 64 µg/mL (≈ 61.4 µM) against Klebsiella pneumoniae [15]; 8 µg/mL (≈ 7.67 µM) in the data set with Staphylococcus aureus [16]; 16 µg/mL (≈ 15.3 µM) with Staphylococcus aureus [17]; 2 µg/mL (≈ 1.92 µM) in data set [18]. Besides, the MIC90 was determined as 4 µg/mL (≈ 3.83 µM) in data set [19]; 16 µg/mL (≈ 15.3 µM) in the data set on Enterococcus faecalis [20]; 8 µg/mL (≈ 7.67 µM) in the data set on Enterococcus faecium [21]; 128 µg/mL (≈ 123 µM) with Streptococcus pneumoniae [22]; 64 µg/mL (≈ 61.4 µM) in the data set on Escherichia coli [23]; 128 µg/mL (≈ 123 µM) against Escherichia coli [24]. In addition, the MIC90 against Escherichia coli [25] is 256 µg/mL (≈ 245 µM); against Pseudomonas aeruginosa [26] it was 512 µg/mL (≈ 491 µM); against Pseudomonas aeruginosa [27], 128 µg/mL (≈ 123 µM); in data set [28], more than 512 µg/mL; in the data set with Acinetobacter baumannii [29] it was 256 µg/mL (≈ 245 µM); against Klebsiella pneumoniae [30], 64 µg/mL (≈ 61.4 µM). In addition, the hemolysis at 100 ug/ml in data set [31] came out at 27.5%. Also, the Ratio in the data set with Pseudomonas aeruginosa [32] and in the data set with Pseudomonas aeruginosa [33] was 4 each time.
For the compound `CC(C)(C)CC(C)(C)c1ccc(OCCCCc2cn(C[C@H]3O[C@@H](O[C@@H]4[C@@H](O)[C@H](N)C[C@H](N)[C@H]4O[C@H]4O[C@H](CN)[C@@H](O)[C@H](O)[C@H]4N)[C@H](O)[C@@H]3O[C@H]3O[C@@H](CN)[C@@H](O)[C@H](O)[C@H]3N)nn2)c(Cc2ccc(Cl)cc2Cl)c1`, the MIC90 in the data set on Staphylococcus aureus [1] turned out to be 16 µg/mL (≈ 14.7 µM); against Staphylococcus aureus [2], 16 µg/mL (≈ 14.7 µM); in data set [3] it was 8 µg/mL (≈ 7.37 µM); in data set [4], 8 µg/mL (≈ 7.37 µM); against Enterococcus faecalis [5], 64 µg/mL (≈ 59 µM); against Enterococcus faecium [6] it was 8 µg/mL (≈ 7.37 µM). For the same compound, the MIC90 in the data set with Streptococcus pneumoniae [7] came out at 64 µg/mL (≈ 59 µM); against Escherichia coli [8] it was 64 µg/mL (≈ 59 µM); with Escherichia coli [9] it was 64 µg/mL (≈ 59 µM); against Escherichia coli [10], 128 µg/mL (≈ 118 µM); in the data set on Pseudomonas aeruginosa [11], 128 µg/mL (≈ 118 µM); against Pseudomonas aeruginosa [12], 64 µg/mL (≈ 59 µM). Further, the MIC90 in [13] came to 512 µg/mL (≈ 472 µM); against Acinetobacter baumannii [14], 256 µg/mL (≈ 236 µM); against Klebsiella pneumoniae [15] it was 32 µg/mL (≈ 29.5 µM); in the data set on Staphylococcus aureus [16], 16 µg/mL (≈ 14.7 µM); in the data set with Staphylococcus aureus [17] it was 32 µg/mL (≈ 29.5 µM); in data set [18], 4 µg/mL (≈ 3.69 µM). Also, the MIC90 in data set [19] was 4 µg/mL (≈ 3.69 µM); in the data set on Enterococcus faecalis [20], 64 µg/mL (≈ 59 µM); in the data set on Enterococcus faecium [21], 16 µg/mL (≈ 14.7 µM); with Streptococcus pneumoniae [22], 64 µg/mL (≈ 59 µM); in the data set on Escherichia coli [23], 64 µg/mL (≈ 59 µM); with Escherichia coli [24] it was 128 µg/mL (≈ 118 µM). For the same compound, the MIC90 in the data set with Escherichia coli [25] is 256 µg/mL (≈ 236 µM); in the data set with Pseudomonas aeruginosa [26], 512 µg/mL (≈ 472 µM); against Pseudomonas aeruginosa [27] it was 256 µg/mL (≈ 236 µM); in data set [28], more than 512 µg/mL; against Acinetobacter baumannii [29], more than 512 µg/mL; in the data set on Klebsiella pneumoniae [30] it was 32 µg/mL (≈ 29.5 µM). In addition, the hemolysis at 100 ug/ml in data set [31] stood at 22.5%. For the same compound, the Ratio with Pseudomonas aeruginosa [32] and with Pseudomonas aeruginosa [33] was 4 each time.
Regarding `CC(C)(C)CC(C)(C)c1ccc(O)c(Cc2ccc(Cl)cc2Cl)c1` [CLOFOCTOL], the solubility result in data set [34] is given as “Insoluble”.
